Patent publication US5091311A, “The production of KSB-1939 macrolides using STR eptomyces hygroscopicus” (Kumiai Chemical Industry Co., Ltd., priority 1987, dated 1992)
Converted amounts (≈) assume the structure as drawn.

Legend:
[1] = system: microfilariae of Dirofilaria immitis; assay: microbe, parasite or virus in culture; conditions: 240 h, read-out: LD50
[2] = Solubility; assay type: physicochemical; conditions: for Solubility in organic solvents: methanol, acetone, ethyl acetate, chloroform and hexane
[3] = system: Brown Rice Planthopper; assay: Test 3 insecticidal test against brown rice planthopper; assay type: in vivo, Nilaparvata lugens Stal; conditions: 120 h, larvae, 5 days, 25° C.
Protocol: Test 3 (Insecticidal Test against Brown Rice Planthopper) Wettable powders which had been prepared following the procedures of Preparation Examples 4-6 respectively were diluted with water to a predetermined concentration. Rice stems and leaves were dipped in the resultant solutions and then dried in the air. They were placed in test tubes. Ten brown rice planthopper larvae were placed in each test tube. The test tubes were plugged with absorbent cotton and the larvae were reared for 5 days in a constant-temperature chamber of 25° C. The test was conducted dually. The numbers of larvae were counted after the rearing, whereby mortality values of brown rice planthopper were calculated.

[4] = system: Diamondback Moth; assay: Test 4 insecticidal test against diamondback moth; assay type: in vivo; conditions: Plutella xylostella, 120 h, 3rd-instar larvae, 5 days, 25° C.
Protocol: Test 4 (Insecticidal Test against Diamondback Moth)
Wettable powders which had been prepared following the procedures of Preparation Examples 4-6 respectively were diluted with water to a predetermined concentration. Cabbage leaves were dipped in the resultant solutions and then dried in the air. They were placed in polyethylene-madecups having a diameter of 55 mm. Ten 3rd-instar larvae of diamondback moth were placed in each cup. The larvae were reared for 5 days in a constant-temperature chamber of 25° C. The test was conducted dually. The numbers of dead larvae were counted after the rearing, whereby mortality values of diamondback moth were calculated.

[5] = Distinction of basic, acidic or neutral; assay type: physicochemical
[6] = system: Twospotted Spider Mite; assay: Test 1 miticidal test against adult female twospotted spider mite; assay type: in vivo, Teranychus urticae Koch; conditions: Tetranychus urticae, 48 h, 2 days after treatment, read-out: Corrected mite mortality
Text: Test 1 (Miticidal Test against Adult Female Twospotted Spider Mite)
(§1) Each of polyethylene-made cups having a diameter of 55 mm and filled with water was covered with a lid through which a hole having a diameter of 10 mm was formed centrally. Absorbent cotton was suspended through the hole of the lid so as to absorb water. A sheet of filter paper was placed on the lid. Two bean leaf disks were place don the filter paper so that the disks were always supplied with water. Using a writing brush, adult female two spotted spider mites were inoculated at a rate of 10 mites per leaf disk. Twenty-four hours later, abnormal mites were removed, and wettable powders which had been prepared in accordance with the procedures of Preparation Examples 4-6 respectively were separately diluted to a predetermined concentration and sprayed to apply 2 mg/cm^2 of the respective agrochemical solutions. The test was conducted dually. Two days after the treatment with the agrochmical solutions, it was determined through a stereoscopic microscope whether the mites were alive or dead. The corrected mite mortality was calculated in accordance with the following equation. [formula]

[7] = system: Asiatic Rice Borer; assay: Test 5 insecticidal test against Asiatic rice borer; assay type: in vivo, Chilo suppressalis Walker; conditions: Chilo suppressalis, 120 h, 3rd-instar larvae, 5 days, 25° C.
Protocol: Test 5 (Insecticidal Test against Asiatic Rice Borer) Wettable powders which had been prepared following the procedures of Preparation Examples 4-6 respectively were diluted with water to a predetermined concentration. Sprouted unhulled rice seeds were dipped in the resultant solutions and then dried in the air. They were placed separately in polyethylene-made cups having a diameter of 55 mm. Ten 3rd-instar larvae of asiatic rice borer were placed in each cup. The larvae were reared for 5 days in a constant-temperature chamber of 25° C. The test was conducted dually. The numbers of dead larvae were counted after the rearing, whereby mortality values of asiatic rice borer were calculated.

[8] = Test 11 acute toxicity test (oral), mouse; parameters: species or system mouse (B6 C3 F1); conditions: in vivo, male
Text: (§2) Test 11 (Acute Toxicity Test)
(§3) The acute toxicity (oral) of one of the compounds of this invention was investigated using rats (male and female, F344, 7 weeks old) and mice (male and female, B6 C3 F1, 7 weeks old).

[9] = system: Twospotted Spider Mite; assay: Test 2 LC50 against twospotted spider mite; assay type: in vivo, Teranychus urticae Koch; conditions: 48 h; for LC50: Tetranychus urticae, following procedure of Test 1
Text: as §1
(§4) Following the procedure of Test 1, tests were conducted with respect to Kanzawa spider mite and twospotted spider mite so that their LC50 values were determined. Milbemycin was used as a control.

[10] = system: Kanzawa spider mite; assay: Test 2 LC50 against Kanzawa spider mite; assay type: in vivo, Tetranychus kanzawai Kishida; conditions: 48 h; for LC50: Tetranychus kanzawai, following procedure of Test 1
Text: as §1, §4

[11] = system: Ancylostoma caninum; assay: Test 8 test against dog nematodes (Ancylostoma caninum); assay type: in vivo, Ancylostoma caninum (in dogs); conditions: dogs, once
Protocol: (§5) Test 8 (Test against Dog Nematodes) A test was conducted using dogs which had been infected naturally with Ancylostoma caninum or Toxocara canis. Namely, using 8 hybrid dogs of 2 months old, KSB-1939H2 according to this invention was administered subcutaneously at a dosage of 0.1 mg/kg-body weight or orally at a dosage of 0.5 mg/kg-body weight. Administration was effected only once. Evaluation was conducted by comparing the number of eggs contained in feces excreted from each dog before the treatment with that of eggs contained in feces excreted from the dog after the treatment.

[12] = Test 11 acute toxicity test (oral), rat; parameters: species or system rat (F344); conditions: in vivo, male
Text: as §2, §3

[13] = system: Toxocara canis; assay: Test 8 test against dog nematodes (Toxocara canis); assay type: in vivo, Toxocara canis (in dogs); conditions: dogs, once
Protocol: as §5

[14] = system: Toxocara cati; assay: Test 9 test against cat nematode; assay type: in vivo, Toxocara cati (in cats); conditions: cats
Protocol: Test 9 (Test against Cat Nematode) A test was conducted using cats which had been infected naturally with Toxocara cati. Namely, 4 hybrid cats infected with the nematode were administered with KSB-1939H2 of this invention at a dosage of 0.05 mg/kg-body weight in the case of subcutaneous administration or at a dosage of 0.1 mg/kg-body weight in the case of oral administration. Evaluation was conducted by comparing the number of eggs contained in feces excreted from each cat before the treatment with that of eggs contained in feces excreted from the cat after the treatment.

[15] = system: Haemonchus concurtus; assay: Test 10 test against sheep nematode; assay type: in vivo, Haemonchus concurtus (in sheep); conditions: oral drench into rumen, once
Protocol: Test 10 (Test against Sheep Nematode) A test was conducted using sheep which had been infected with Haemonchus concurtus. Namely, KSB-1939H4 of this invention was formulated into oral drenches. Four sheep which had been infected artificially with Haemonchus concurtus were administered with the compound by injecting the oral drenches into their rumens respectively. They were treated only once by a single dosage of 0.5 mg/kg-body weight or 1.0 mg/kg-body weight. Evaluation was conducted by comparing the number of eggs contained in feces excreted from each sheep before the treatment with that of eggs contained in feces excreted from the sheep after the treatment.

Molecule	LC50 [1] [µg/mL]	Solubility in organic solvents [2]	Solubility in water [2]	Distinction of basic, acidic or neutral [5]	mortality at 1 ppm [6] [%]	mortality at 0.2 ppm [7] [%]	mortality at 1 ppm [7] [%]	mortality at 1 ppm [3] [%]	mortality at 5 ppm [3] [%]	LD50 [8] [mg/kg]	mortality at 0.2 ppm [6] [%]	further results
CC1=C[C@H]2C(=O)O[C@H]3C[C@@H](C/C=C(\C)C[C@@H](C)/C=C/C=C4\CO[C@H]([C@@H]1O)[C@@]42O)O[C@@]1(CC[C@H](C)[C@@H](C(C)C)O1)C3 [Milbemycin D, reference compound]	7.5 (≈ 13.5 µM)											
CC1=CCC2CC(CC3(CCC(C)C(C)O3)O2)OC(=O)C2C=C(COC(=O)CCC(C)C)C(O)C3OCC(=CC=CC(C)C1)C23O (stereo not shown) [KSB-1939H5]	1.6 (≈ 2.49 µM)	Soluble	Insoluble	Neutral	100	90	100					mortality at 25 ppm [3]: 95%; mortality at 25 ppm [4]: 100%; mortality at 5 ppm [6]: 100%
CCCC(=O)OCC1=CC2C(=O)OC3CC(CC=C(C)CC(C)C=CC=C4COC(C1O)C42O)OC1(CCC(C)C(C)O1)C3 (stereo not drawn) [KSB-1939L3β]		Soluble	Insoluble	Neutral								
CCC1OC2(CCC1C)CC1CC(CC=C(C)CC(C)C=CC=C3COC4C(O)C(COC(=O)C=C(C)C)=CC(C(=O)O1)C34O)O2 (stereo not shown) [KSB-1939S5]	3.5 (≈ 5.46 µM)	Soluble	Insoluble	Neutral	100			85	100	> 5000	100	LC50 [9]: 0.0339 µg/mL (≈ 0.0529 µM); mortality at 0.04 ppm [6]: 45.7%; LC50 [10]: 0.0643 µg/mL (≈ 0.1 µM)
CC(C)=CC(=O)OCC1=CC2C(=O)OC3CC(CC=C(C)CC(C)C=CC=C4COC(C1O)C42O)OC1(CCC(C)C(C)O1)C3 (stereo not shown) [KSB-1939H2]	3.4 (≈ 5.42 µM)	Soluble	Insoluble	Neutral	100	90	100	95	100	> 5000	100	activities (eggs in feces before and after treatment) ([11]; oral 0.5 mg/kg): 100%; activities (eggs in feces before and after treatment) ([11]; subcutaneous 0.1 mg/kg): 100%; LD50 [12]: > 5000 mg/kg; activities (eggs in feces before and after treatment) ([13]; oral 0.5 mg/kg): 100%; activities (eggs in feces before and after treatment) ([13]; subcutaneous 0.1 mg/kg): 100%; activities (eggs in feces before and after treatment) ([14]; oral 0.1 mg/kg): 100%; activities (eggs in feces before and after treatment) ([14]; subcutaneous 0.05 mg/kg): 100%; LC50 [9]: 0.0249 µg/mL (≈ 0.0397 µM); mortality at 0.004 ppm ([6]; 0.004 ppm): 70.1%; LC50 [10]: 0.0465 µg/mL (≈ 0.0742 µM)
Milbemycin [reference compound]												LC50 Twospotted spider mite ([9]; twospotted spider mite, in vivo): 0.339 ppm; LC50 Kanzawa spider mite ([10]; kanzawa spider mite, in vivo): 0.485 ppm
CC1=CCC2CC(CC3(CCC(C)C(C)O3)O2)OC(=O)C2C=C(COC(=O)C(C)C)C(O)C3OCC(=CC=CC(C)C1)C23O (stereo not drawn) [KSB-1939L3α]		Soluble	Insoluble	Neutral								
CC1=CCC2CC(CC3(CCC(C)C(C)O3)O2)OC(=O)C2C=C(COC(=O)CC(C)C)C(O)C3OCC(=CC=CC(C)C1)C23O (stereo not shown) [KSB-1939H3]	1.5 (≈ 2.39 µM)	Soluble	Insoluble	Neutral	100				65	> 5000	100	mortality at 25 ppm [3]: 100%; mortality at 25 ppm [4]: 100%; mortality at 5 ppm [6]: 100%
CCC(C)=CC(=O)OCC1=CC2C(=O)OC3CC(CC=C(C)CC(C)C=CC=C4COC(C1O)C42O)OC1(CCC(C)C(C)O1)C3 (stereo not shown) [KSB-1939H4]	3.3 (≈ 5.15 µM)	Soluble	Insoluble	Neutral	100	90	100	65	100		100	mortality at 0.04 ppm [6]: 94.2%; activities (eggs in feces before and after treatment) ([15]; 0.5 mg/kg): 80-90%; activities (eggs in feces before and after treatment) ([15]; 1.0 mg/kg): 100%
